Laboratory results: PubChem BioAssay (NCI)
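Briefly, cells in 96-well plates were exposed to five compound concentrations for 48 h, and endpoints were estimated by linear interpolation. GI50 marks 50% less growth. TGI: total growth inhibition.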

Legend:
Assay in all cases: NCI-60 cell line screen, 48 h
COLO 205 colon = tested on: COLO 205 colon
HCT-116 colon = tested on: HCT-116 colon
M14 melanoma = tested on: M14 melanoma
SF-268 CNS = tested on: SF-268 CNS
LOX IMVI melanoma = tested on: LOX IMVI melanoma
U251 CNS = tested on: U251 CNS
HOP-62 NSCLC = tested on: HOP-62 NSCLC
NCI-H226 lung = tested on: NCI-H226 lung
OVCAR-4 ovarian = tested on: OVCAR-4 ovarian
RXF 393 renal = tested on: RXF 393 renal
UACC-257 melanoma = tested on: UACC-257 melanoma
CCRF-CEM leukemia = tested on: CCRF-CEM leukemia
MDA-MB-231 breast = tested on: MDA-MB-231 breast
OVCAR-5 ovarian = tested on: OVCAR-5 ovarian
SK-MEL-5 melanoma = tested on: SK-MEL-5 melanoma
EKVX NSCLC = tested on: EKVX NSCLC
HOP-92 NSCLC = tested on: HOP-92 NSCLC
SN12C renal = tested on: SN12C renal
SNB-75 CNS = tested on: SNB-75 CNS
PC-3 prostate = tested on: PC-3 prostate
OVCAR-8 ovarian = tested on: OVCAR-8 ovarian
RPMI-8226 leukemia = tested on: RPMI-8226 leukemia
IGROV1 ovarian = tested on: IGROV1 ovarian
SK-MEL-28 melanoma = tested on: SK-MEL-28 melanoma
NCI-H23 lung = tested on: NCI-H23 lung
HL-60(TB) leukemia = tested on: HL-60(TB) leukemia
UO-31 renal = tested on: UO-31 renal
K-562 leukemia = tested on: K-562 leukemia
786-0 renal = tested on: 786-0 renal
DU-145 prostate = tested on: DU-145 prostate
HS 578T breast = tested on: HS 578T breast
HCT-15 colon = tested on: HCT-15 colon
SF-539 CNS = tested on: SF-539 CNS
BT-549 breast = tested on: BT-549 breast
KM12 colon = tested on: KM12 colon
SK-MEL-2 melanoma = tested on: SK-MEL-2 melanoma
ACHN renal = tested on: ACHN renal
OVCAR-3 ovarian = tested on: OVCAR-3 ovarian
SW-620 colon = tested on: SW-620 colon
MCF7 breast = tested on: MCF7 breast
HT29 colon = tested on: HT29 colon
MOLT-4 leukemia = tested on: MOLT-4 leukemia
NCI-H460 lung = tested on: NCI-H460 lung
TK-10 renal = tested on: TK-10 renal
SK-OV-3 ovarian = tested on: SK-OV-3 ovarian
A549 NSCLC = tested on: A549 NSCLC
A498 renal = tested on: A498 renal
HCC-2998 colon = tested on: HCC-2998 colon
CAKI-1 renal = tested on: CAKI-1 renal
NCI-H522 lung = tested on: NCI-H522 lung
SNB-19 CNS = tested on: SNB-19 CNS
T-47D breast = tested on: T-47D breast
MDA-MB-435 = tested on: MDA-MB-435
MALME-3M melanoma = tested on: MALME-3M melanoma
SF-295 CNS = tested on: SF-295 CNS

## CCN(CC)c1ccc(/C=C/C(=O)c2cccc(NS(C)(=O)=O)c2)cc1
COLO 205 colon
  GI50: 5.28 µM
  TGI: > 100 µM
HCT-116 colon
  GI50: 3.99 µM
  TGI: > 100 µM
M14 melanoma
  GI50: 4.1 µM
  TGI: > 100 µM
SF-268 CNS
  GI50: 18.5 µM
  TGI: > 100 µM
LOX IMVI melanoma
  GI50: 3.13 µM
  TGI: > 100 µM
U251 CNS
  GI50: 10.9 µM
  TGI: > 100 µM
HOP-62 NSCLC
  GI50: 27.6 µM
  TGI: > 100 µM
NCI-H226 lung
  GI50: 74 µM
  TGI: > 100 µM
OVCAR-4 ovarian
  GI50: 6.27 µM
  TGI: > 100 µM
RXF 393 renal
  GI50: 58 µM
  TGI: > 100 µM
UACC-257 melanoma
  GI50: 92.5 µM
  TGI: > 100 µM
CCRF-CEM leukemia
  GI50: 3.19 µM
  TGI: 18.1 µM
MDA-MB-231 breast
  GI50: 9.7 µM
  TGI: > 100 µM
OVCAR-5 ovarian
  GI50: 35 µM
  TGI: > 100 µM
SK-MEL-5 melanoma
  GI50: 4.21 µM
  TGI: > 100 µM
EKVX NSCLC
  GI50: 5.46 µM
  TGI: > 100 µM
HOP-92 NSCLC
  GI50: 14 µM
  TGI: 71.1 µM
SN12C renal
  GI50: 6.69 µM
  TGI: > 100 µM
SNB-75 CNS
  GI50: 10.6 µM
  TGI: > 100 µM
PC-3 prostate
  GI50: 6.35 µM
  TGI: > 100 µM
OVCAR-8 ovarian
  GI50: > 100 µM
  TGI: > 100 µM
RPMI-8226 leukemia
  GI50: 2340 nM
  TGI: 20.8 µM
IGROV1 ovarian
  GI50: > 100 µM
  TGI: > 100 µM
SK-MEL-28 melanoma
  GI50: 43.5 µM
  TGI: > 100 µM
NCI-H23 lung
  GI50: 4.51 µM
  TGI: > 100 µM
HL-60(TB) leukemia
  GI50: 20 µM
  TGI: > 100 µM
UO-31 renal
  GI50: > 100 µM
  TGI: > 100 µM
K-562 leukemia
  GI50: 3.47 µM
  TGI: > 100 µM
786-0 renal
  GI50: 4.98 µM
  TGI: > 100 µM
DU-145 prostate
  GI50: 7.2 µM
  TGI: > 100 µM
HS 578T breast
  GI50: 19.3 µM
  TGI: > 100 µM
HCT-15 colon
  GI50: 3.44 µM
  TGI: > 100 µM
SF-539 CNS
  GI50: 4.94 µM
  TGI: > 100 µM
BT-549 breast
  GI50: 4.67 µM
  TGI: > 100 µM
KM12 colon
  GI50: 3.18 µM
  TGI: > 100 µM
SK-MEL-2 melanoma
  GI50: > 100 µM
  TGI: > 100 µM
ACHN renal
  GI50: 6.2 µM
  TGI: > 100 µM
OVCAR-3 ovarian
  GI50: 6.37 µM
  TGI: > 100 µM
SW-620 colon
  GI50: 3.27 µM
  TGI: > 100 µM
MCF7 breast
  GI50: 3.72 µM
  TGI: > 100 µM
HT29 colon
  GI50: 3.15 µM
  TGI: > 100 µM
MOLT-4 leukemia
  GI50: 4.09 µM
  TGI: > 100 µM
NCI-H460 lung
  GI50: 4.72 µM
  TGI: > 100 µM
TK-10 renal
  GI50: 7.53 µM
  TGI: > 100 µM
SK-OV-3 ovarian
  GI50: 5.27 µM
  TGI: > 100 µM
A549 NSCLC
  GI50: > 100 µM
  TGI: > 100 µM
A498 renal
  GI50: 5.39 µM
  TGI: > 100 µM
HCC-2998 colon
  GI50: > 100 µM
  TGI: > 100 µM
CAKI-1 renal
  GI50: 7.97 µM
  TGI: > 100 µM
NCI-H522 lung
  GI50: 87.7 µM
  TGI: > 100 µM
SNB-19 CNS
  GI50: 86 µM
  TGI: > 100 µM
T-47D breast
  GI50: 4.29 µM
  TGI: > 100 µM
MDA-MB-435
  GI50: 3.29 µM
  TGI: > 100 µM
MALME-3M melanoma
  GI50: 5.79 µM
  TGI: > 100 µM
SF-295 CNS
  GI50: 5.91 µM
  TGI: > 100 µM
